Source: ChEMBL document CHEMBL1201861, “Genomics of Drug Sensitity in Cancer screening data, Wellcome Trust Sanger Institute”
pIC50: −log10 of the molar value. Values joined by “and” are separate entries in the source; they are usually repeats but may differ in a detail not shown here. Equal entries are not always repeated. One block for each molecule: values may come before it. Where a SMILES comes first, the peptide text is derived from it. The star is where a group is joined. Cbz = O=C(OCc1ccccc1)*

Experiments:
CaR-1 = assay: cells; assay type: functional, cell-based; conditions: Homo sapiens;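 note: growth inhibition of human CaR-1 cancer cells, read out with a cell viability assay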
Description: SANGER: Inhibition of human CaR-1 cell growth in a cell viability assay.

Detroit 562 = assay: cells; assay type: functional, cell-based; conditions: Homo sapiens;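 note: growth inhibition of human Detroit 562 cells, read out by a cell viability assay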
Description: SANGER: Inhibition of human Detroit562 cell growth in a cell viability assay.

DoTc2-4510 = assay: cells; assay type: functional, cell-based; conditions: Homo sapiens
GAMG = assay: cells; assay type: functional, cell-based; conditions: Homo sapiens;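 note: cell growth inhibition measured by a viability assay in the GAMG human cell line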
Description: SANGER: Inhibition of human GAMG cell growth in a cell viability assay.

GCT = assay: cells; assay type: functional, cell-based; conditions: Homo sapiens;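 note: GCT cell line proliferation inhibition, read out with a cell viability assay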
Description: SANGER: Inhibition of human GCT cell growth in a cell viability assay.

H4 = assay: cells; assay type: functional, cell-based; conditions: Homo sapiens
Description: SANGER: Inhibition of human H4 cell growth in a cell viability assay.

HCC1937 = assay: cells; assay type: functional, cell-based; conditions: Homo sapiens;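 note: growth inhibition measured with a cell viability read-out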
Description: SANGER: Inhibition of human HCC1937 cell growth in a cell viability assay.

HGC-27 = assay: cells; assay type: functional, cell-based; conditions: Homo sapiens;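 note: growth inhibition of human HGC-27 cells, read out in a cell viability assay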
Description: SANGER: Inhibition of human HGC-27 cell growth in a cell viability assay.

HLE = assay: cells; assay type: functional, cell-based; conditions: Homo sapiens;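 note: growth inhibition of human HLE cells, read out by a cell viability assay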
Description: SANGER: Inhibition of human HLE cell growth in a cell viability assay.

HSC-3 = assay: cells; assay type: functional, cell-based; conditions: Homo sapiens
Description: SANGER: Inhibition of human HSC-3 cell growth in a cell viability assay.

HT1197 = assay: cells; assay type: functional, cell-based, HT-1197; conditions: Homo sapiens
Description: SANGER: Inhibition of human HT-1197 cell growth in a cell viability assay.

HuCCT-1 = assay: cells; assay type: functional, cell-based, HuCCT1; conditions: Homo sapiens;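 note: growth inhibition of HuCCT-1 cells, read out by a cell viability assay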
Description: SANGER: Inhibition of human HuCCT1 cell growth in a cell viability assay.

HuP-T4 = assay: cells; assay type: functional, cell-based; conditions: Homo sapiens;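 note: cell viability assay measuring how much HuP-T4 cell growth is inhibited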
Description: SANGER: Inhibition of human HuP-T4 cell growth in a cell viability assay.

JEG-3 = assay: cells; assay type: functional, cell-based; conditions: Homo sapiens;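 note: growth inhibition of human JEG-3 cells, read out with a cell viability assay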
Description: SANGER: Inhibition of human JEG-3 cell growth in a cell viability assay.

KYSE-140 = assay: cells; assay type: functional, cell-based; conditions: Homo sapiens;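 note: cell viability assay measuring growth inhibition in human KYSE-140 cells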
Description: SANGER: Inhibition of human KYSE-140 cell growth in a cell viability assay.

KYSE-510 = assay: cells; assay type: functional, cell-based; conditions: Homo sapiens;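 note: cell viability readout used to measure how strongly growth of the cell line is suppressed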
Description: SANGER: Inhibition of human KYSE-510 cell growth in a cell viability assay.

LN-405 = assay: cells; assay type: functional, cell-based; conditions: Homo sapiens
Description: SANGER: Inhibition of human LN-405 cell growth in a cell viability assay.

NB14 = assay: cells; assay type: functional, cell-based, Homo sapiens;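 note: growth inhibition of NB14 cells measured with a cell viability assay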
Description: SANGER: Inhibition of human NB14 cell growth in a cell viability assay.

NCI-H2122 = assay: cells; assay type: functional, cell-based; conditions: Homo sapiens;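 note: growth inhibition of the cells, read out with a cell viability assay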
Description: SANGER: Inhibition of human NCI-H2122 cell growth in a cell viability assay.

NCI-H2170 = assay: cells; assay type: functional, cell-based; conditions: Homo sapiens;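 note: cell viability assay measuring growth inhibition of human NCI-H2170 cancer cells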
Description: SANGER: Inhibition of human NCI-H2170 cell growth in a cell viability assay.

NCI-H2405 = assay: cells; assay type: functional, cell-based; conditions: Homo sapiens;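 note: growth inhibition of the human cell line, read out with a cell viability assay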
Description: SANGER: Inhibition of human NCI-H2405 cell growth in a cell viability assay.

NCI-H727 = assay: cells; assay type: functional, cell-based; conditions: Homo sapiens;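 note: growth inhibition of human NCI-H727 cells, read out with a cell viability assay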
Description: SANGER: Inhibition of human NCI-H727 cell growth in a cell viability assay.

NUGC-3 = assay: cells; assay type: functional, cell-based; conditions: Homo sapiens;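 note: growth inhibition of human NUGC-3 cells, read out with a cell viability assay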
Description: SANGER: Inhibition of human NUGC-3 cell growth in a cell viability assay.

PANC-08-13 = assay: cells; assay type: functional, cell-based; conditions: Homo sapiens
Description: SANGER: Inhibition of human PANC-08-13 cell growth in a cell viability assay.

PFSK-1 = assay: cells; assay type: functional, cell-based; conditions: Homo sapiens;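 note: cell viability assay measuring how strongly compounds suppress growth of human PFSK-1 cells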
Description: SANGER: Inhibition of human PFSK-1 cell growth in a cell viability assay.

RPMI-2650 = assay: cells; assay type: functional, cell-based; conditions: Homo sapiens
Description: SANGER: Inhibition of human RPMI-2650 cell growth in a cell viability assay.

SF-295 = assay: cells; assay type: functional, cell-based; conditions: Homo sapiens;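 note: growth inhibition of SF-295 cells, read out with a cell viability assay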
Description: SANGER: Inhibition of human SF295 cell growth in a cell viability assay.

SW948 = assay: cells; assay type: functional, cell-based; conditions: Homo sapiens;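 note: growth inhibition of SW948 cells, read out with a cell viability assay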
Description: SANGER: Inhibition of human SW948 cell growth in a cell viability assay.

T47D = assay: cells; assay type: functional, cell-based; conditions: Homo sapiens;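 note: growth inhibition of human T47D cells, measured with a cell viability assay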
Description: SANGER: Inhibition of human T47D cell growth in a cell viability assay.

639-V = assay: cells; assay type: functional, cell-based; conditions: Homo sapiens;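 note: growth inhibition of 639-V cells, read out with a cell viability assay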
Description: SANGER: Inhibition of human 639-V cell growth in a cell viability assay.

A673 = assay: cells; assay type: functional, cell-based; conditions: Homo sapiens;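 note: growth inhibition of human A673 cells, read out through a cell viability assay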
Description: SANGER: Inhibition of human A673 cell growth in a cell viability assay.

AU565 = assay: cells; assay type: functional, cell-based; conditions: Homo sapiens;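 note: cell viability assay measuring growth inhibition of human AU565 cells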
Description: SANGER: Inhibition of human AU565 cell growth in a cell viability assay.

BPH-1 = assay: cells; assay type: functional, cell-based; conditions: Homo sapiens;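 note: cell viability assay measuring growth inhibition of human BPH-1 cells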
Description: SANGER: Inhibition of human BPH-1 cell growth in a cell viability assay.

CAL-120 = assay: cells; assay type: functional, cell-based; conditions: Homo sapiens;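 note: cell growth inhibition, read out as cell viability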
Description: SANGER: Inhibition of human CAL-120 cell growth in a cell viability assay.

UMUC3 = assay: cells; assay type: functional, cell-based; conditions: Homo sapiens;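 note: growth inhibition of human UM-UC-3 cells, read out with a cell viability assay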
Description: SANGER: Inhibition of human UM-UC-3 cell growth in a cell viability assay.

UMC-11 = assay: cells; assay type: functional, cell-based; conditions: Homo sapiens;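 note: growth inhibition of UMC-11 cells, read out with a cell viability assay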
Description: SANGER: Inhibition of human UMC-11 cell growth in a cell viability assay.

COLO-678 = assay: cells; assay type: functional, cell-based; conditions: Homo sapiens
Description: SANGER: Inhibition of human COLO-678 cell growth in a cell viability assay.

COLO-680N = assay: cells; assay type: functional, cell-based; conditions: Homo sapiens;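 note: cell viability assay used to measure inhibition of COLO-680N cell growth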
Description: SANGER: Inhibition of human COLO-680N cell growth in a cell viability assay.

DG-75 = assay: cells; assay type: functional, cell-based, Homo sapiens;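 note: growth inhibition of DG-75 cells, read out with a cell viability assay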
Description: SANGER: Inhibition of human DG-75 cell growth in a cell viability assay.

ECC4 = assay: cells; assay type: functional, cell-based, Homo sapiens;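 note: growth inhibition of ECC4 cells, read out with a cell viability assay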
Description: SANGER: Inhibition of human ECC4 cell growth in a cell viability assay.

K052 = assay: cells; assay type: functional, cell-based, Homo sapiens;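 note: Read-out from a cell viability assay, IC50 reflecting suppression of K052 cell growth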
Description: SANGER: Inhibition of human K052 cell growth in a cell viability assay.

KMOE-2 = assay: cells; assay type: functional, cell-based, Homo sapiens;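 note: growth inhibition of human KMOE-2 cells, read out with a cell viability assay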
Description: SANGER: Inhibition of human KMOE-2 cell growth in a cell viability assay.

LB647-SCLC = assay: cells; assay type: functional, cell-based, Homo sapiens;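 note: cell growth inhibition, read out by a viability assay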
Description: SANGER: Inhibition of human LB647-SCLC cell growth in a cell viability assay.

LC-1F = assay: cells; assay type: functional, cell-based, Homo sapiens;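 note: growth inhibition of human LC-1F cells, read out with a cell viability assay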
Description: SANGER: Inhibition of human LC-1F cell growth in a cell viability assay.

LC4-1 = assay: cells; assay type: functional, cell-based, Homo sapiens;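 note: growth inhibition of LC4-1 cells, read out with a cell viability assay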
Description: SANGER: Inhibition of human LC4-1 cell growth in a cell viability assay.

LOUCY = assay: cells; assay type: functional, cell-based, Homo sapiens;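 note: growth inhibition of human LOUCY cells, read out with a cell viability assay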
Description: SANGER: Inhibition of human LOUCY cell growth in a cell viability assay.

MDA-MB-134-VI = assay: cells; assay type: functional, cell-based, Homo sapiens
Description: SANGER: Inhibition of human MDA-MB-134-VI cell growth in a cell viability assay.

MONO-MAC-6 = assay: cells; assay type: functional, cell-based, Homo sapiens;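 note: cell viability assay measuring growth inhibition of human MONO-MAC-6 cells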
Description: SANGER: Inhibition of human MONO-MAC-6 cell growth in a cell viability assay.

NCI-H1522 = assay: cells; assay type: functional, cell-based, Homo sapiens;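 note: growth inhibition of NCI-H1522 cells, read out with a cell viability assay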
Description: SANGER: Inhibition of human NCI-H1522 cell growth in a cell viability assay.

NCI-H64 = assay: cells; assay type: functional, cell-based, Homo sapiens;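 note: growth inhibition of NCI-H64 cells, read out with a cell viability assay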
Description: SANGER: Inhibition of human NCI-H64 cell growth in a cell viability assay.

Raji = assay: cells; assay type: functional, cell-based, Homo sapiens;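 note: cell viability assay measuring inhibition of Raji cell growth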
Description: SANGER: Inhibition of human Raji cell growth in a cell viability assay.

SCC-3 = assay: cells; assay type: functional, cell-based, Homo sapiens;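 note: cell viability assay measuring inhibition of SCC-3 cell growth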
Description: SANGER: Inhibition of human SCC-3 cell growth in a cell viability assay.

ARH-77 = assay: cells; assay type: functional, cell-based, Homo sapiens;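 note: growth inhibition of ARH-77 cells, read out by a cell viability assay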
Description: SANGER: Inhibition of human ARH-77 cell growth in a cell viability assay.

BC1 cell line = assay: SANGER: Inhibition of human BC-1 cell growth in a cell viability assay.; assay type: functional, cell-based
BOKU = assay: cells; assay type: functional, cell-based; conditions: Homo sapiens;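 note: growth inhibition of the human BOKU cell line, read out by a cell viability assay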
Description: SANGER: Inhibition of human BOKU cell growth in a cell viability assay.

TE-441-T = assay: cells; assay type: functional, cell-based, Homo sapiens
Description: SANGER: Inhibition of human TE-441-T cell growth in a cell viability assay.

THP-1 = assay: cells; assay type: functional, cell-based, Homo sapiens;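 note: growth inhibition of THP-1 cells, read out via a cell viability assay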
Description: SANGER: Inhibition of human THP-1 cell growth in a cell viability assay.

CESS = assay: SANGER: Inhibition of human CESS cell growth in a cell viability assay.; assay type: functional, cell-based

Compound: O=C(NCCCNc1nc(Nc2cccc(NC(=O)N3CCCC3)c2)ncc1I)c1cccs1 [BX-795]
- pIC50 (CaR-1): < 5.30
- pIC50 (Detroit 562): 5.41
- pIC50 (DoTc2-4510): < 5.30
- pIC50 (GAMG): 5.55
- pIC50 (GCT): < 5.30
- pIC50 (H4): 5.96
- pIC50 (HCC1937): < 5.30
- pIC50 (HGC-27): < 5.30
- pIC50 (HLE): < 5.30
- pIC50 (HSC-3): 5.84
- pIC50 (HT1197): < 5.30
- pIC50 (HuCCT-1): < 5.30
- pIC50 (HuP-T4): < 5.30
- pIC50 (JEG-3): < 5.30
- pIC50 (KYSE-140): 5.43
- pIC50 (KYSE-510): 5.30
- pIC50 (LN-405): < 5.30
- pIC50 (NB14; Homo sapiens, NB14): 5.97
- pIC50 (NCI-H2122): < 5.30
- pIC50 (NCI-H2170): < 5.30
- pIC50 (NCI-H2405): 5.33
- pIC50 (NCI-H727): < 5.30
- pIC50 (NUGC-3): < 5.30
- pIC50 (PANC-08-13): < 5.30
- pIC50 (PFSK-1): < 5.30
- pIC50 (RPMI-2650): < 5.30
- pIC50 (SF-295): 5.38
- pIC50 (SW948): < 5.30
- pIC50 (T47D): < 5.30
- pIC50 (639-V): < 5.30
- pIC50 (A673): < 5.30
- pIC50 (AU565): < 5.30
- pIC50 (BPH-1): 5.50
- pIC50 (CAL-120): 5.41
- pIC50 (UMUC3): < 5.30
- pIC50 (UMC-11): 5.54
- pIC50 (COLO-678): < 5.30
- pIC50 (COLO-680N): < 5.30

Compound: C[C@@H](Oc1cc(-c2cnn(C3CCNCC3)c2)cnc1N)c1c(Cl)ccc(F)c1Cl [CRIZOTINIB]
- pIC50 (DG-75; Homo sapiens, DG-75): < 5.70
- pIC50 (ECC4; Homo sapiens, ECC4): < 5.70
- pIC50 (K052; Homo sapiens, K052): < 5.70
- pIC50 (KMOE-2; Homo sapiens, KMOE-2): < 5.70
- pIC50 (LB647-SCLC; Homo sapiens, LB647-SCLC): < 5.70
- pIC50 (LC-1F; Homo sapiens, LC-1F): < 5.70
- pIC50 (LC4-1; Homo sapiens, LC4-1): < 5.70
- pIC50 (LOUCY; Homo sapiens, LOUCY): < 5.70
- pIC50 (MDA-MB-134-VI; Homo sapiens, MDA-MB-134-VI): < 5.70
- pIC50 (MONO-MAC-6; Homo sapiens, MONO-MAC-6): < 5.70
- pIC50 (NB14; Homo sapiens, NB14): < 5.70
- pIC50 (NCI-H1522; Homo sapiens, NCI-H1522): < 5.70
- pIC50 (NCI-H64; Homo sapiens, NCI-H64): < 5.70
- pIC50 (Raji; Homo sapiens, Raji): < 5.70
- pIC50 (SCC-3; Homo sapiens, SCC-3): 6.45
- pIC50 (ARH-77; Homo sapiens, ARH-77): < 5.70
- pIC50 (BC1 cell line; Homo sapiens, BC1): < 5.70
- pIC50 (BOKU): < 5.70
- pIC50 (TE-441-T; Homo sapiens, TE-441-T): < 5.70
- pIC50 (THP-1; Homo sapiens, THP-1): < 5.70
- pIC50 (CESS; Homo sapiens, CESS): < 5.70

Compound: CC(C)C[C@@H](C=O)NC(=O)[C@H](CC(C)C)NC(=O)[C@H](CC(C)C)NC(=O)OCc1ccccc1 [MG-132] (Cbz-Leu-Leu-Leu-aldehyde)
- pIC50 (DG-75; Homo sapiens, DG-75): < 6.00
- pIC50 (DG-75; dg-75): < 6.00
- pIC50 (ECC4; ecc4): < 6.00
- pIC50 (K052; k052): 6.54 and < 6.00
- pIC50 (KMOE-2; Homo sapiens, KMOE-2): < 6.00
- pIC50 (KMOE-2; kmoe-2): < 6.00
- pIC50 (LB647-SCLC; Homo sapiens, LB647-SCLC): < 6.00
- pIC50 (LB647-SCLC; lb647-sclc): < 6.00
- pIC50 (LC-1F; lc-1f): < 6.00
- pIC50 (LC4-1; Homo sapiens, LC4-1): 6.36
- pIC50 (LC4-1; lc4-1): 6.13
- pIC50 (LOUCY; loucy): 6.59 and < 6.00
- pIC50 (MDA-MB-134-VI; mda-mb-134-vi): < 6.00
- pIC50 (MONO-MAC-6; Homo sapiens, MONO-MAC-6): 6.27
- pIC50 (MONO-MAC-6; mono-mac-6): 6.14
- pIC50 (NB14; nb14): < 6.00
- pIC50 (NCI-H1522; nci-h1522): < 6.00
- pIC50 (NCI-H64; nci-h64): < 6.00
- pIC50 (Raji; Homo sapiens, Raji): < 6.00
- pIC50 (Raji; raji): < 6.00
- pIC50 (SCC-3; Homo sapiens, SCC-3): < 6.00
- pIC50 (SCC-3; scc-3): < 6.00
- pIC50 (ARH-77; arh-77): < 6.00
- pIC50 (BC1 cell line; Homo sapiens, BC1): < 6.00
- pIC50 (BC1 cell line; bc1): < 6.00
- pIC50 (BOKU): < 6.00
- pIC50 (TE-441-T; te-441-t): < 6.00
- pIC50 (THP-1; thp-1): < 6.00
- pIC50 (CESS; cess): 6.77 and < 6.00

- pIC50 (H4): 6.86
- pIC50 (HGC-27): < 6.29
- pIC50 (HSC-3): < 6.29
- pIC50 (HuCCT-1): 6.75
- pIC50 (NCI-H2122): 6.49
- pIC50 (NCI-H2405): 6.45
- pIC50 (SF-295): 6.56
- pIC50 (T47D): < 6.29
- pIC50 (CAL-120): 6.68
- pIC50 (UMC-11): < 6.29
Compound: CO[C@@H]1[C@H](N(C)C(=O)c2ccccc2)C[C@H]2O[C@]1(C)n1c3ccccc3c3c4c(c5c6ccccc6n2c5c31)C(=O)NC4 [MIDOSTAURIN]
- pIC50 (BC1 cell line; Homo sapiens, BC1): < 6.29
- pIC50 (CESS; Homo sapiens, CESS): < 6.29

Compound: CS(=O)(=O)N1CCN(Cc2cc3nc(-c4cccc5[nH]ncc45)nc(N4CCOCC4)c3s2)CC1 [PICTILISIB]
- pIC50 (CaR-1): < 5.40
- pIC50 (Detroit 562): < 5.40
- pIC50 (DoTc2-4510): < 5.40
- pIC50 (GAMG): 6.43
- pIC50 (GCT): < 5.40
- pIC50 (H4): 6.07
- pIC50 (HCC1937): < 5.40
- pIC50 (HGC-27): 6.67
- pIC50 (HLE): < 5.40
- pIC50 (HSC-3): 6.08
- pIC50 (HT1197): < 5.40
- pIC50 (HuCCT-1): < 5.40
- pIC50 (HuP-T4): 5.79
- pIC50 (JEG-3): < 5.40
- pIC50 (KYSE-140): < 5.40
- pIC50 (KYSE-510): < 5.40
- pIC50 (LN-405): < 5.40
- pIC50 (NB14; Homo sapiens, NB14): < 5.40
- pIC50 (NCI-H2122): < 5.40
- pIC50 (NCI-H2170): < 5.40
- pIC50 (NCI-H2405): < 5.40
- pIC50 (NCI-H727): < 5.40
- pIC50 (NUGC-3): < 5.40
- pIC50 (PANC-08-13): < 5.40
- pIC50 (PFSK-1): 5.71
- pIC50 (RPMI-2650): 5.44
- pIC50 (SF-295): 5.64
- pIC50 (SW948): < 5.40
- pIC50 (T47D): 6.22
- pIC50 (639-V): 5.82
- pIC50 (A673): < 5.40
- pIC50 (AU565): 5.88
- pIC50 (BPH-1): 6.50
- pIC50 (CAL-120): < 5.40
- pIC50 (UMUC3): < 5.40
- pIC50 (UMC-11): < 5.40
- pIC50 (COLO-678): < 5.40
- pIC50 (COLO-680N): < 5.40
